Source: PubChem BioAssay (NCI)
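Step 1: Grow cells in 96-well plates. Step 2: Expose to compound for 48 hours at 5 concentrations. Step 3: Interpolate endpoints linearly; if unreached, use highest concentration. GI50: concentration for 50% inhibition of growth. TGI: total growth inhibition.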

Tests used:
Test in all cases: NCI anticancer screen, dose series, 48 h
[1] = system: MDA-MB-231 breast
[2] = system: A498 renal
[3] = system: HCC-2998 colon
[4] = system: NCI-H522 lung
[5] = system: DU-145 prostate
[6] = system: UO-31 renal
[7] = system: RPMI-8226 leukemia
[8] = system: U251 CNS
[9] = system: MALME-3M melanoma
[10] = system: BT-549 breast
[11] = system: SNB-75 CNS
[12] = system: MDA-MB-435
[13] = system: K-562 leukemia
[14] = system: OVCAR-8 ovarian
[15] = system: SR leukemia
[16] = system: COLO 205 colon
[17] = system: ACHN renal
[18] = system: SK-MEL-2 melanoma
[19] = system: PC-3 prostate
[20] = system: HOP-62 NSCLC
[21] = system: OVCAR-5 ovarian
[22] = system: SF-268 CNS
[23] = system: SF-539 CNS
[24] = system: SK-MEL-5 melanoma
[25] = system: SNB-19 CNS
[26] = system: HCT-116 colon
[27] = system: HOP-92 NSCLC
[28] = system: UACC-257 melanoma
[29] = system: T-47D breast
[30] = system: KM12 colon
[31] = system: IGROV1 ovarian
[32] = system: SK-MEL-28 melanoma
[33] = system: HL-60(TB) leukemia
[34] = system: A549 NSCLC
[35] = system: CCRF-CEM leukemia
[36] = system: MCF7 breast
[37] = system: NCI/ADR-RES ovarian
[38] = system: RXF 393 renal
[39] = system: SF-295 CNS
[40] = system: SW-620 colon
[41] = system: NCI-H23 lung
[42] = system: NCI-H460 lung
[43] = system: CAKI-1 renal
[44] = system: OVCAR-3 ovarian
[45] = system: HCT-15 colon
[46] = system: OVCAR-4 ovarian
[47] = system: MOLT-4 leukemia
[48] = system: TK-10 renal
[49] = system: NCI-H226 lung
[50] = system: HS 578T breast
[51] = system: UACC-62 melanoma
[52] = system: HT29 colon
[53] = system: SK-OV-3 ovarian
[54] = system: SN12C renal
[55] = system: EKVX NSCLC
[56] = system: LOX IMVI melanoma
[57] = system: 786-0 renal

`CCN(CC)CCOc1ccc(C(=C(C)Cc2ccc(OC)cc2)c2ccc(OCCN(CC)CC)cc2)cc1` was tested, and the GI50 [1] was 3.93 µM, the TGI [1] was 7.91 µM and the GI50 [2] was 3.67 µM. The TGI [2] was 16 µM, the GI50 [3] was 3.57 µM and the TGI [3] was 6.97 µM. The GI50 [4] was 4.56 µM, the TGI [4] was 9.86 µM and the GI50 [5] was 4.59 µM. The TGI [5] was 10.6 µM, the GI50 [6] was 3.42 µM and the TGI [6] was 6.82 µM. For the same compound, the GI50 [7] was 3.27 µM, the TGI [7] was 8.39 µM and the GI50 [8] was 3.99 µM. The TGI [8] was 8.34 µM, the GI50 [9] was 6.12 µM and the TGI [9] was 10.5 µM. For the same compound, the GI50 [10] was 3.84 µM, the TGI [10] was 7.48 µM and the GI50 [11] was 13.4 µM. The TGI [11] was 25 µM, the GI50 [12] was 3.96 µM and the TGI [12] was 7.48 µM. For the same compound, the GI50 [13] was 609 nM, the TGI [13] was 2080 nM and the GI50 [14] was 6.08 µM. The TGI [14] was 15.2 µM, the GI50 [15] was 805 nM and the TGI [15] was 3.1 µM. For the same compound, the GI50 [16] was 4.45 µM, the TGI [16] was 10.3 µM and the GI50 [17] was 4.46 µM. It also gave a TGI [17] of 8.67 µM, a GI50 [18] of 4.8 µM and a TGI [18] of 9.83 µM. The GI50 [19] was 3.88 µM, the TGI [19] was 8.15 µM and the GI50 [20] was 4.7 µM. It also gave a TGI [20] of 11.2 µM, a GI50 [21] of 3.68 µM and a TGI [21] of 7.32 µM. It also gave a GI50 [22] of 4.22 µM, a TGI [22] of 9.16 µM and a GI50 [23] of 3.7 µM. The TGI [23] was 7.37 µM, the GI50 [24] was 4 µM and the TGI [24] was 7.47 µM. It also gave a GI50 [25] of 4.44 µM, a TGI [25] of 8.84 µM and a GI50 [26] of 2950 nM. It also gave a TGI [26] of 6.51 µM, a GI50 [27] of 1070 nM and a TGI [27] of 8.98 µM. The GI50 [28] was 4.62 µM, the TGI [28] was 9.29 µM and the GI50 [29] was 4.06 µM. It also gave a TGI [29] of 10.9 µM, a GI50 [30] of 3.66 µM and a TGI [30] of 7.57 µM. The GI50 [31] was 4.18 µM, the TGI [31] was 8.31 µM and the GI50 [32] was 3.72 µM. It also gave a TGI [32] of 7.21 µM, a GI50 [33] of 3.46 µM and a TGI [33] of 7.77 µM. The GI50 [34] was 4.52 µM, the TGI [34] was 10.6 µM and the GI50 [35] was 2650 nM. The TGI [35] was 7.2 µM, the GI50 [36] was 2860 nM and the TGI [36] was 6.51 µM. The GI50 [37] was 4.24 µM, the TGI [37] was 8.74 µM and the GI50 [38] was 1420 nM. For the same compound, the TGI [38] was 5.11 µM, the GI50 [39] was 4.36 µM and the TGI [39] was 8.49 µM. For the same compound, the GI50 [40] was 3.75 µM, the TGI [40] was 7.71 µM and the GI50 [41] was 4.59 µM. The TGI [41] was 10.5 µM, the GI50 [42] was 3.92 µM and the TGI [42] was 7.8 µM. The GI50 [43] was 3.63 µM, the TGI [43] was 7.38 µM and the GI50 [44] was 3.2 µM. The TGI [44] was 7.5 µM, the GI50 [45] was 2650 nM and the TGI [45] was 6.25 µM. For the same compound, the GI50 [46] was 4.48 µM, the TGI [46] was 10.7 µM and the GI50 [47] was 3.13 µM. The TGI [47] was 7.55 µM, the GI50 [48] was 3.86 µM and the TGI [48] was 8.67 µM. The GI50 [49] was 4.37 µM, the TGI [49] was 11.3 µM and the GI50 [50] was 4.34 µM. It also gave a TGI [50] of 11.5 µM, a GI50 [51] of 4.59 µM and a TGI [51] of 8.87 µM. The GI50 [52] was 2830 nM, the TGI [52] was 7.8 µM and the GI50 [53] was 5.06 µM. The TGI [53] was 10.5 µM, the GI50 [54] was 3.55 µM and the TGI [54] was 7.19 µM. It also gave a GI50 [55] of 3.84 µM, a TGI [55] of 9.13 µM and a GI50 [56] of 3.04 µM. It also gave a TGI [56] of 6.44 µM, a GI50 [57] of 3.42 µM and a TGI [57] of 7.04 µM.
